Source: patent publication US8431593B2, “Heteroaryl amide derivatives” (H. Lundbeck A/S, priority 2006, dated 2013)

target: T1, P2X7 receptor (Homo sapiens, UniProt Q99572); test: P2X7 calcium mobilization assay, high throughput, antagonist activity (Example 4A); assay type: cell-based; settings: not given
T1 construct: host or cells: SH-SY5Y
T1 sequence (Q99572 1-595): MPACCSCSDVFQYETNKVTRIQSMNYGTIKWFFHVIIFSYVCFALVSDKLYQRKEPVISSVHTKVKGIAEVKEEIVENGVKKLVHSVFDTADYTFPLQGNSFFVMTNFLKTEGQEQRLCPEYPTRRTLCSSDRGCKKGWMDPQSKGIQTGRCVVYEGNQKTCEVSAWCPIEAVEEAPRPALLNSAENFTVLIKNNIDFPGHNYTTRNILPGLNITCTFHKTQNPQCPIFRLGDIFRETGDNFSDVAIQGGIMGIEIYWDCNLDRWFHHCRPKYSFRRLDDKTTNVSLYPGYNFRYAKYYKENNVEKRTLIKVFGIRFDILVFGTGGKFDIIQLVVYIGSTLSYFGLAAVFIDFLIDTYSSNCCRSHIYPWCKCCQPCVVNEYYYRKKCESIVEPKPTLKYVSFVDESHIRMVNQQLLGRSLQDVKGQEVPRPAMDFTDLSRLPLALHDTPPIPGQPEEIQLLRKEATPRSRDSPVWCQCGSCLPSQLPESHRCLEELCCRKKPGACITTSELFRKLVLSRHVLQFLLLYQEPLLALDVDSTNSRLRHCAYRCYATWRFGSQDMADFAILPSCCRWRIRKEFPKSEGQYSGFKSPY
Outline: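 Cells plated 100,000/well the day before; after 1 h dye loading and one rinse, cells were preincubated 1 h at room temperature with test compound. Calcium mobilization then read on FLIPR^TETRA; maximum RFU corrected by subtracting mean no-agonist response and referenced to mean agonist-control maximum.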

Compound	IC50 [µM]
O=C(NCC12CC3CC(CC(C3)C1)C2)c1cccc2nc(CN3CCCC(C(=O)O)C3)cn12 (stereo not shown) [Compound 191, 1-({5-[(adamantan-1-ylmethyl)carbamoyl]imi-dazo[1,2-a]pyridin-2-yl}methyl)piperidine-3-carboxylic acid]	< 2

same assay, conditions: 50% decrease in the fluorescence response of cells exposed to 80 μM 2′(3′)-O-(4-benzoyl-benzoyl)adenosine 5′-triphosphate; Example 4A; read-out: IC50

Compound	IC50 [µM]
CC(C)[C@@H]1CN(C(=O)Cc2cn3c(C(=O)NC[C@@H]4CC[C@@H]5C[C@H]4C5(C)C)cccc3n2)CCN1 [Compound 571, N-{[(1R,2R,5R)-6,6-dimethylbicyclo[3.1.1]hept-2-yl]methyl}-2-{2-[(3R)-3-isopropylpiperazin-1-yl]-2-oxoethyl}imidazo[1,2-a]pyridine-5-carboxamide]	< 2
O=C(NCC12CC3CC(CC(C3)C1)C2)c1cccc2nc(CS(=O)(=O)c3nnc[nH]3)cn12 [Compound 449, N-(adamantan-1-ylmethyl)-2-[(4H-1,2,4-triazol-3-ylsulfonyl)methyl] imidazo [1,2-a]pyridine-5-carboxamide]	< 2
CC1(C)[C@@H]2CC[C@@H](CNC(=O)c3cccc4nc(CC(=O)NC5CCNCC5)cn34)[C@H]1C2 [Compound 592, N-{[(1R,2R,5R)-6,6-dimethylbicyclo[3.1.1]hept-2-yl]methyl}-2-[2-oxo-2-(piperidin-4-ylamino)ethyl]imidazo [1,2-a]pyridine-5-carboxamide]	< 2

same assay, conditions: 50% decrease in the fluorescence response of cells exposed to 80 μM of 2′(3′)-O-(4-benzoyl-benzoyl)adenosine 5′-triphosphate; Example 4A; read-out: IC50

Compound	IC50 [µM]
CC(Cc1cn2c(C(=O)NCC34CC5CC(CC(C5)C3)C4)cccc2n1)C(=O)O (stereo not shown) [Compound 693, 3-{5-[(adamantan-1-ylmethyl)carbamoyl]imidazo[1,2-a]pyridin-2-yl}-2-methylpropanoic acid]	< 2
COCCN(C(=O)c1cn2c(C(=O)NCC34CC5CC(CC(C5)C3)C4)cccc2n1)C1CCNCC1 [Compound 618, 5-N-(adamantan-1-ylmethyl)-2-N-(2-methoxyethyl)-2-N-piperidin-4-yl imidazo[1,2-a]pyridine-2,5-dicarboxamide]	< 2
CN(C)CCCN(C)C(=O)c1cn2c(C(=O)NCC34CC5CC(CC(C5)C3)C4)cccc2n1 [Compound 670, 5-N-(adamantan-1-ylmethyl)-2-N-[3-(dimethylamino)propyl]-2-N-methylimidazo[1,2-a]pyridine-2,5-dicarboxamide]	< 2
CN1CCC(NC(=O)c2cn3c(C(=O)NCC45CC6CC(CC(C6)C4)C5)cccc3n2)CC1 [Compound 659, 5-N-(adamantan-1-ylmethyl)-2-N-(1-methylpiperidin-4-yl)imidazo[1,2-a]pyridine-2,5-dicarboxamide]	< 2
CC(C)(C)OC(=O)Nc1cn2c(C(=O)NCC34CC5CC(CC(C5)C3)C4)cccc2n1 [Compound 788, tert-butyl {5-[(adamantan-1-ylmethyl)carbamoyl]imidazo[1,2-a]pyridin-2-yl}carbamate]	< 2

same assay, conditions: 50% decrease in the fluorescence response of cells exposed to 80 μM of 2′(3′)-O-(4-benzoyl-benzoyl)adenosine 5′-triphosphate; determined as in Example 4A; read-out: IC50

Compound	IC50 [µM]
Cc1ccc(C2(CNC(=O)c3cccc4nc(CC(Cc5ccccc5)C(=O)O)cn34)CCCCC2)cc1 (stereo not shown) [Compound 1011, 2-benzyl-3-[5-({[1-(4-methylphenyl)cyclohexyl]methyl}carbamoyl)imidazo[1,2-a]pyridin-2-yl] propanoic acid]	< 2
O=C(NCC1(c2ccc(C(F)(F)F)cc2)CCCCC1)c1cccc2nc(Cn3nnc(CCO)n3)cn12 [Compound 920, 2-{[5-(2-hydroxyethyl)-2H-tetrazol-2-yl]methyl}-N-({1-[4-(trifluoromethyl)phenyl]cyclohexyl}methyl)imidazo [1,2-a]pyridine-5-carboxamide]	< 2
O=C(Cc1cn2c(C(=O)NCC3(N4CCOCC4)CCCCC3)cccc2n1)NC1(CO)CCCC1 [Compound 988, 2-(2-{[1-(hydroxymethyl)cyclopentyl]amino}-2-oxoethyl)-N-[(1-morpholin-4-ylcyclohexyl)methyl] imidazo[1,2-a] pyridine-5-carboxamide]	< 2
O=C(NCC12CC3CC(CC(C3)C1)C2)c1cccc2nc(Cn3nnnc3-c3ccncc3)cn12 [Compound 818, N-(adamantan-1-ylmethyl)-2-[(5-pyridin-4-yl-1H-tetrazol-1-yl)methyl]imidazo [1,2-a]pyridine-5-carboxamide]	< 2
CC(O)CNC(=O)Cc1cn2c(C(=O)NCC3(c4cccnc4)CCCCC3)cccc2n1 (stereo not shown) [Compound 857, 2-{2-[(2-hydroxypropyl)amino]-2-oxoethyl}-N-[(1-pyridin-3-ylcyclohexyl)methyl] imidazo[1,2-a] pyridine-5-carboxamide]	< 2
O=C(Cc1cn2c(C(=O)NCC3(c4ccc(Cl)cc4)CCCCC3)cccc2n1)N[C@@H]1CCNC1 [Compound 961, N-{[1-(4-chlorophenyl)cyclohexyl]methyl}-2-{2-oxo-2-[(3R)-pyrrolidin-3-ylamino]ethyl} imidazo [1,2-a]pyridine-5-carboxamide]	< 2
CN(Cc1cccc(N)n1)C(=O)c1cn2c(C(=O)NCC34CC5CC(CC(C5)C3)C4)cccc2n1 [Compound 825, 5-N-(adamantan-1-ylmethyl)-2-N-[(6-aminopyridin-2-yl)methyl]-2-N-methylimidazo[1,2-a]pyridine-2,5-dicarboxamide]	< 2
NC(=O)COc1cccc(NC(=O)Cc2cn3c(C(=O)NCC4CCCCCC4)cccc3n2)c1 [Compound 958, 2-(2-{[3-(2-amino-2-oxoethoxy)phenyl]amino}-2-oxoethyl)-N-(cycloheptylmethyl) imidazo[1,2-a] pyridine-5-carboxamide]	< 2

same assay, conditions: P2X7 calcium mobilization, Example 4A; 50% decrease in the fluorescence response of cells exposed to 80 μM of (2′(3′)-O-(4-benzoyl-benzoyl)adenosine 5′-triphosephate); read-out: IC50

Compound	IC50 [µM]
CC(C)CC(CNC(=O)c1cccc2ncc(Cl)n12)c1ccc(C(F)(F)F)nc1 (stereo not shown) [Compound 1052, 3-chloro-N-{4-methyl-2-[6-(trifluoromethyl)pyridin-3-yl]pentyl} imidazo[1,2-a]pyridine-5-carboxamide]	< 2
O=C(NCC1(c2ccc(Cl)cc2)CCCCC1)c1cccc2nc(C(F)(F)F)cn12 [Compound 1020, N-{[1-(4-chlorophenyl)cyclohexyl]methyl}-2-(trifluoromethyl) imidazo [1,2-a]pyridine-5-carboxamide]	< 2
O=C(NCC12CC3CC(CC(C3)C1)C2)c1cccc2nc(CCN3CCCC3)cn12 [Compound 1040, N-(adamantan-1-ylmethyl)-2-(2-pyrrolidin-1-ylethyl) imidazo [1,2-a]pyridine-5-carboxamide]	< 2

same assay, conditions: SH-SY5Y cells; 50% decrease in fluorescence response to 80 μM BzATP; read-out: IC50

Compound	IC50 [µM]
CS(=O)(=O)N1CCN(C(=O)Cc2cn3c(C(=O)NCC45CC6CC(CC(C6)C4)C5)cccc3n2)CC1 [Compound 44, N-(adamantan-1-ylmethyl)-2-{2-[4-(methylsulfonyl)piperazin-1-yl]-2-oxoethyl}imidazo[1,2-a]pyridine-5-carboxamide]	< 2
CS(=O)(=O)NCCc1cn2c(C(=O)NCC34CC5CC(CC(C5)C3)C4)cccc2n1 [Compound 193, N-(adamantan-1-ylmethyl)-2-{2-[(methylsulfonyl)amino]eth-yl}imidazo[1,2-a]pyridine-5-carboxamide]	< 2
O=C(Cc1cn2c(C(=O)NCC34CC5CC(CC(C5)C3)C4)cccc2n1)NC1CCCC1 [Compound 153, N-(adamantan-1-ylmethyl)-2-[2-(cyclopentylamino)-2-oxoethyl]imidazo[1,2-a]pyridine-5-carboxamide]	< 2
O=C(NCC12CC3CC(CC(C3)C1)C2)c1cccc2nc(COC3CCNC3)cn12 (stereo not shown) [Compound 190, N-(adamantan-1-ylmethyl)-2-[(pyrrolidin-3-yloxy)methyl]imidazo[1,2-a]pyridine-5-carboxamide]	< 2
CN(CC(C)(C)O)C(=O)Cc1cn2c(C(=O)NCC34CC5CC(CC(C5)C3)C4)cccc2n1 [Compound 57, N-(adamantan-1-ylmethyl)-2-{2-[(2-hydroxy-2-methyl-propyl)(meth-yl)amino]-2-oxoethyl}imidazo[1,2-a]pyridine-5-carboxamide]	< 2

same assay, conditions: fluorescence response of cells exposed to 80 μM 2′(3′)-O-(4-benzoyl-benzoyl)adenosine 5′-triphosphate; Example 4A; read-out: IC50

Compound	IC50 [µM]
CN(CC(=O)O)Cc1cn2c(C(=O)NCC34CC5CC(CC(C5)C3)C4)cccc2n1 [Compound 348, N-({5-[(adamantan-1-ylmethyl)carbamoyl]imidazo[1,2-a]pyridin-2-yl}methyl)-N-methylglycine]	< 2
O=C(O)c1cccc(-c2cn3c(C(=O)NCC45CC6CC(CC(C6)C4)C5)cccc3n2)c1 [Compound 345, 3-{5-[(adamantan-1-ylmethyl)carbamoyl]imidazo[1,2-a]pyridin-2-yl} benzoic acid]	< 2
O=C(O)c1ccn(Cc2cn3c(C(=O)NCC45CC6CC(CC(C6)C4)C5)cccc3n2)c(=O)c1 [Compound 355, 1-({5-[(adamantan-1-ylmethyl)carbamoyl]imidazo[1,2-a]pyridin-2-yl}methyl)-2-oxo-1,2-dihydropyridine-4-carboxylic acid]	< 2
